Our source for the IC50 values is the Kinase Knowledgebase extract (Sharma et al. 2016).

The target of the assay is MAPK14;MAPK11;MAPK12 (human) (UniProt Q16539). In words: Inhibition of p38 Kinase Activity.

`CNCCN(C)c1nc(NC[C@@H](C)c2ccccc2)nc(Nc2ccc3ncsc3c2)n1` returned an IC50 below 10000 nM.

With `CC(C)NC(=O)N1CCN(c2nc(NCC(C)c3ccccc3)nc(Nc3ccc4ncsc4c3)n2)CC1` (stereo not given), the 50% inhibitory concentration (IC50) is below 10000 nM. Under `Cc1c(Nc2nc(NC[C@@H]3CC[C@H]4C[C@H]3C4(C)C)nc(N(C)CC(C)C)n2)cccc1C(N)=O` stands below 1000 nM; under `Cc1ccc(C(=O)Nc2ccccn2)cc1Nc1nc(N[C@H]2CCNC2)nc(N(C)CC(C)C)n1`, below 1000 nM.

Regarding `Cc1ccc(C(N)=O)cc1Nc1nc(N[C@H]2CN[C@H](C)C2)nc(N(C)CC(C)(C)C)n1`, the concentration for half-maximal inhibition (IC50) is below 1000 nM. In the case of `Cc1ccc(C(N)=O)cc1Nc1nc(NCc2cccc3ccccc23)nc(N[C@@H]2CCNC2)n1`, the IC50 was below 1000 nM. Under `Cc1cc(Cl)c(C(N)=O)cc1Nc1nc(N[C@H]2CCNC2)nc(N(C)CC(C)(C)C)n1` stands below 1000 nM. Under `CC(CNc1nc(Nc2ccc3ncsc3c2)nc(N(C)CCCN(C)C(=O)C2CCOC2)n1)c1ccccc1` (stereo not given) stands below 10000 nM.

`Cc1ccc(C(N)=O)cc1Nc1nc(N[C@@H]2CCN(C(C)CC(C)C)C2)nc(N(C)CC(C)(C)C)n1` (stereo not given in full) yielded an IC50 below 1000 nM. Under `c1ccc(C2CCCN(c3nc(Nc4ccc5ncsc5c4)nc(N4CCNCC4)n3)C2)cc1` (stereo not given) stands below 10000 nM; under `CC(C)Oc1nc(NCC(C)c2ccccc2)nc(Nc2ccc3ncsc3c2)n1` (stereo not given), below 10000 nM; under `CCc1ccc(CN2CC[C@@H](Nc3nc(Nc4cc(C(N)=O)ccc4C)nc(N(C)CC(C)C)n3)C2)cc1`, below 1000 nM. Compound `CC(CCCCCCNc1nc(NCC(C)c2ccccc2)nc(Nc2ccc3ncoc3c2)n1)C(N)=O` (stereo not given) showed an IC50 below 10000 nM. Under `CNC(=O)CCC(=O)N1CCN(c2nc(NCC3CC[C@H]4C[C@@H]3C4(C)C)nc(Nc3ccc4ncsc4c3)n2)CC1` (stereo not given in full) stands below 10000 nM. Under `CCONC(=O)c1ccc(C)c(Nc2nc(N)nc(N(C)CC(C)(C)C)n2)c1` stands below 1000 nM; under `Cc1ccc(C(N)=O)cc1Nc1nc(NCC(C)(C)C)nc(N[C@H]2CCNC2)n1`, below 1000 nM. Under `CN1CCCN(c2nc(Sc3cc(C(N)=O)ccc3F)nc(N(C)CC(C)(C)C)n2)CC1` stands below 30000 nM; under `Cc1ccc(C(N)=O)cc1Nc1nc(NC2CCCc3ccccc32)nc(N[C@@H]2CCNC2)n1` (stereo not given in full), below 1000 nM. For `Cc1ccc(C(N)=O)cc1Nc1nc(N[C@H]2CCN(Cc3ccccc3F)C2)nc(N(C)CC(C)C)n1`, the IC50 is below 1000 nM. Under `Clc1nc(Nc2ccc3ncsc3c2)nc(N2CCc3ccccc3C2)n1` stands below 10000 nM; under `CCNC(=O)c1ccc(C)c(Nc2nc(NCC(C)(C)C)nc(N[C@H]3CCNC3)n2)c1`, below 1000 nM. Compound `CNC(=O)c1ccc(C)c(Nc2nc(N[C@H]3CCN(Cc4ccccc4OC)C3)nc(N(C)CC(C)C)n2)c1` showed an IC50 below 1000 nM. Under `Cc1ccc(C(N)=O)cc1Nc1nc(N[C@H]2CCNC2)cc(N(C)CC(C)C)n1` stands below 1000 nM; under `Cc1ccc(C(N)=O)cc1Nc1nc(NC[C@H]2CCCN2)nc(N(C)CC(C)(C)C)n1`, below 1000 nM.

In the case of `CNC(=O)c1ccc(C)c(Nc2nc(O[C@H]3CCNC3)nc(N(C)CC(C)(C)C)n2)c1`, the half-maximal inhibitory concentration (IC50) was below 1000 nM. Turning to `CC1(C)[C@H]2CCC(COc3nc(O)nc(Nc4ccc5ncsc5c4)n3)[C@@H]1C2` (stereo not given in full), the IC50 is below 10000 nM.

In the case of `CONC(=O)c1ccc(C)c(Nc2nc(Cl)nc(N(C)CC(C)(C)C)n2)c1`, the IC50 was below 1000 nM. Under `CONC(=O)c1ccc(C)c(Nc2nc(N(C)CC(C)(C)C)cc(N3CCCN(C)CC3)n2)c1` stands below 1000 nM. Under `Cc1ccc(C(N)=O)cc1Nc1nc(NC2CCCCNC2)nc(N(C)CC(C)(C)C)n1` (stereo not given) stands below 1000 nM. Under `Cc1ccc2c(c1)ncn2-c1nc(NCCOC(C)C)cc(N(C)C)n1` stands below 10000 nM. In turn, `Cc1ccc(C(N)=O)cc1Nc1nc(NC2CCN(Cc3ccccn3)C2)nc(N(C)CC(C)C)n1` (stereo not given) had an IC50 below 1000 nM. Under `Cc1ccc(C(N)=O)cc1Oc1nc(NCc2ccccn2)nc(N(C)CC(C)(C)C)n1` stands below 30000 nM; under `Cc1ccc2c(c1Nc1nc(NCC(C)(C)C)nc(N[C@H]3CCNC3)n1)CNC2=O`, below 1000 nM; under `Cc1ccc(C(N)=O)cc1Nc1nc(NC2CCN(Cc3ccccc3)C2)nc(N(C)CC(C)(C)C)n1` (stereo not given), below 1000 nM. Under `CCC(C)N1CC[C@@H](Nc2nc(Nc3cc(C(N)=O)ccc3C)nc(N(C)CC(C)C)n2)C1` (stereo not given in full) stands below 1000 nM. Under `Cc1cc2c(cc1Cl)C(=O)N2c1nc(N[C@H]2CCNC2)nc(N(C)CC(C)(C)C)n1` stands below 1000 nM. `Cc1ccc(C(N)=O)cc1Nc1nc(N[C@H]2CCN(C3CCC3)C2)nc(N(C)CC(C)C)n1` came in with a concentration for half-maximal inhibition (IC50) below 1000 nM.

Regarding `Clc1nc(Nc2ccc3ncsc3c2)nc(N[C@H]2C[C@H]2c2ccccc2)n1`, the half-maximal inhibitory concentration (IC50) was below 10000 nM. For the compound `CONC(=O)c1ccc(C)c(Nc2nc(NCc3ccccc3)nc(N(C)CC(C)(C)C)n2)c1`, the concentration for half-maximal inhibition (IC50) was below 1000 nM.

As for `CC(C)c1nc(Cl)nc(Nc2ccc3ncsc3c2)n1`, the IC50 is below 10000 nM. As to `Cc1ccc(C(N)=O)cc1Nc1nc(N[C@H]2CCNC2)nc(N(C)CC2CCCCC2)n1`, the half-inhibitory concentration (IC50) is below 1000 nM. Under `CONC(=O)c1ccc(C)c(Nc2nc(N(C)CC(C)(C)C)nc(N3CCCN(C)CC3)n2)c1` stands below 1000 nM. In the case of `CN(CCN(C)c1nc(NCc2ccc(F)cc2F)nc(-n2cnc3ccccc32)n1)C(=O)CCC(=O)O`, the IC50 was below 10000 nM. Regarding `Cc1ccc2ncn(-c3nc(F)cc(NCCOC(C)C)n3)c2c1`, the 50% inhibitory concentration (IC50) was below 10000 nM. Take `COc1nc(NCC(C)c2ccccc2)nc(Nc2ccc3ncsc3c2)n1` (stereo not given): the IC50 is below 10000 nM.

For `Cc1ccc(CC2CC(Nc3nc(Nc4cc(C(N)=O)ccc4C)nc(N(C)CC(C)(C)C)n3)CN2)cc1` (stereo not given), the IC50 was below 1000 nM. Under `CCN(CC(C)(C)C)c1nc(Nc2cc(C(N)=O)ccc2C)nc(N[C@H]2CCNC2)n1` stands below 1000 nM; under `CC(CNc1nc(Nc2ccc3ncsc3c2)nc(N2CCCCC2)n1)c1ccccc1` (stereo not given), below 10000 nM. Turning to `Cc1ccc(C(N)=O)cc1Nc1nc(NC2CCN(Cc3ccc(O)cc3)C2)nc(N(C)CC(C)C)n1` (stereo not given), the IC50 is below 1000 nM. Under `Cc1ccc(C(N)=O)cc1Nc1nc(N[C@H]2CCN(Cc3cccc(C#N)c3)C2)nc(N(C)CC(C)C)n1` stands below 1000 nM; under `NC(=O)C1CCN(c2cc(Nc3ccc4ncsc4c3)nc(NC3CCC3)n2)CC1`, below 10000 nM; under `Cc1ccc(C(N)=O)cc1Nc1nc(N[C@H]2CCNC2)nc(SCC(C)C)n1`, below 1000 nM. Under `CN(C)c1nc(Nc2ccc3ncsc3c2)nc(NC(C)(C)Cc2ccccc2)n1` stands below 10000 nM; under `COc1ccc(CN2CCC(Nc3nc(Nc4cc(C(N)=O)ccc4C)nc(N(C)CC(C)C)n3)C2)cc1` (stereo not given), below 1000 nM. Under `CNC(=O)c1ccc(C)c(Oc2nc(N(C)CC(C)(C)C)nc(N3CCCN(C)CC3)n2)c1` stands below 30000 nM; under `Cc1ccc(C(N)=O)cc1Nc1nc(N[C@H]2CCN(Cc3ccc(C(C)(C)C)cc3)C2)nc(N(C)CC(C)C)n1`, below 1000 nM. In turn, `Cc1ccc(C(=O)NO)cc1Nc1nc(N[C@H]2CCNC2)nc(N(C)CC(C)(C)C)n1` had an IC50 below 1000 nM.

In turn, `CONC(=O)c1ccc(C)c(Nc2nc(NCCN3CCOCC3)nc(N(C)CC(C)(C)C)n2)c1` displayed an IC50 below 1000 nM. Under `CC(C)NC(=O)N1CC2CC1CN2c1nc(NCC(C)c2ccccc2)nc(Nc2ccc3ncsc3c2)n1` (stereo not given) stands below 10000 nM; under `CSc1nc2ccc(Nc3nc(NC[C@H](C)O)nc(N[C@@H](C)C4CCCCC4)n3)cc2s1`, below 10000 nM.

As usually defined, the IC50 is the concentration that inhibits the measured activity by half. A higher IC50 goes with weaker potency in that assay.
